According to patent US20220040236A1, “COMPOSITIONS AND METHODS OF TREATMENT OF VISION LOSS THROUGH GENERATION OF ROD PHOTORECEPTORS FROM MÜLLER GLIAL CELLS” (ICAHN SCHOOL OF MEDICINE AT MOUNT SINAI, priority 2018, published 2022):

Experiments:
Assay type in all cases: in vivo, mouse
Wnt signaling pathway = assay: quantitative PCR of Wnt genes, Wnt antagonists and Wnt target genes after NMDA injury
Protocol: Total RNA was extracted from retinas using TRIzol (Invitrogen, Grand Island, N.Y.) according to the manufacture's protocol. Reverse transcription (RT) was then performed at 42° C. for 2 hours in a volume of 20 μl containing 0.5 μg of oligo(dT), 1×RT buffer, 0.5 mM each deoxyribonucleotide triphosphate, 0.1 mM dithiothreitol, and 200 U of Superscript II reverse transcriptase (Invitrogen, Grand Island, N.Y.). Real-Time quantitative PCR (qPCR) was performed in triplicate with SsoFast™ EvaGreen supermix (Bio-Rad, Hercules, Calif.) using an iCycler real-time PCR detection system (Bio-Rad, Hercules, Calif.). The amplification protocol was 30 seconds at 94° C., 30 seconds at 56° C., and 30 seconds at 72° C., with a signal detection period of 7 seconds at 80° C. A melt curve analysis was performed at the end of the reaction to check the reaction specificity. Results were obtained after normalization to the expression level of the housekeeping gene, B-actin. All experiments were performed at least twice to ensure repeatable results.
To examine whether Wnt signaling is activated by NMDA-induced neurotoxic injury, quantitative PCR was performed to assay the RNA levels of Wnt genes at 3, 6, 12, 18, 24, 36, and 48 hours post-NMDA injection, relative to the PBS injected retina as a control. […] The upregulation of Wnt genes and a concomitant downregulation of WIF-1 and Dkk1 would predict activation of the canonical Wnt/β-catenin signaling pathway. Indeed, 24 hours post-NMDA injection, a 3.4-fold upregulation of CyclinD1 (Ccnd1, FIG. 2D), a target gene of the Wnt signaling pathway (Shtutman et al., Proc Natl Acad Sci USA, 1999, 96:5522-5527; Tetsu and McCormick, Nature, 1999, 398:422-426) and key regulator of the cell cycle progression from the G1 to S phase (Resnitzky et al., Mol Cell Biol. 1994, 14:1669-1679), was detected.

Müller glial cells (MGs) = assay: NMDA-induced MG proliferation, EdU incorporation in retinal flatmount preparations
Protocol: (§1) Adult mice at 4 weeks of age were anesthetized with an intraperitoneal injection of ketamine (50 mg/kg mouse body weight) and xylazine (5 mg/kg mouse body weight). Intravitreal injection was performed using a microsyringe equipped with a 33 gauge needle. The tip of the needle was passed through the sclera, at the equator and next to the dorsal limbus of the eye, into the vitreous cavity. Injection volume is 1 μl per eye for AAVs or other chemicals including NMDA (Acros Organics, 100 mM) and XAV939 (Sigma, 10 μM).
EdU solution (1 ul) was intravitreally injected into the vitreous chamber at the concentration of 1 mg/ml. Analysis of EdU incorporation was performed using Click-iT EdU Kit (Invitrogen, Grand Island, N.Y.). In brief, retinal cryostat sections or flatmount preparations were washed in PBS first for 10 min and then washed twice in PBS containing 3% BSA, followed by permeabilization in PBS containing 0.5% Triton X-100 for 20 min. After washing twice in PBS containing 3% BSA, EdU detection components were resuspended according to manufacturer's instructions and applied directly to retinal samples. The solution for each EdU reaction has a total volume of 250 μl composed of 215 μl 1× Click-iT reaction buffer, 10 μl CuSO4, 0.6 μl Alexa Fluor azide, and 25 μl 1× Reaction buffer additive. After incubation in the reaction solution for 30 minutes at room temperature, samples were washed with PBS and mounted with Fluoromount-G for detection.
To examine MG proliferation induced by neurotoxic injury in the adult mammalian retina, 200 nmol was injected NMDA into the vitreous chamber of the mouse retina at 4 weeks of age. The same dosage of NMDA was previously used to introduce retinal injury leading to MG proliferation in adult rat and mouse retina (Karl et al., Proc Natl Acad Sci USA, 2008, 105:19508-19513; Ooto et al., Proc Natl Acad Sci USA, 2004, 101:13654-13659). Anti-HuC/D immunohistochemistry was used to assay the time course of NMDA-induced cell death in the ganglion cell layer (GCL). […] To assay cell proliferation, 1 μl of 1 mg/ml of EdU, a nucleoside analog of thymidine that is incorporated into DNA during active DNA synthesis, was injected into the vitreous chamber 5 hours before tissue collection at 24, 36, 48, 60, 72, and 96 hours post-NMDA injection. NMDA-induced cell proliferation was quantified by scoring the number of EdU^+ cells/mm^2 in retinal flatmount preparations. A small number (4.7±0.8) of EdU^−1 cells appeared 36 hours post-NMDA injection. The number of EdU^−1 cells continued to increase, reaching 223.3±8.3 and 264.5±8.4 at 48 and 60 hours, respectively, before it was reduced to 5.8±1.1 at 72 hours post-NMDA injection (FIG. 2A). The EdU^−1 cells were also immunoreactive for CyclinD3 and p27^kip1 (FIG. 2B), MG-specific nuclear antigens (Dyer and Cepko, Nat Neurosci. 2000, 3:873-880).
To examine the ability of inhibition of Wnt signaling to suppress NMDA-induced MG proliferation, NMDA was co-injected with XAV939, a selective Wnt signaling antagonist (Huang et al., Nature, 2009, 461:614-620), and the number of EdU^+ cells per mm^2 in retinal flatmount preparations was quantified 60 hours post-injection, when the maximum number of EdU^+ cells were detected (FIG. 2A). […] To assay whether XAV939 treatment affects NMDA-induced retinal damage, the number of HuC/D+ cells was quantified in the GCL at 60 hours post-injection.
Lin28 is a direct transcriptional target of Wnt/β-catenin signaling. […]

[1] = test system: retinal ganglion cells and amacrine cells; assay: NMDA-induced cell death, anti-HuC/D immunohistochemistry in the ganglion cell layer; details: 36 hours post-NMDA injection, 200 nmol NMDA intravitreal
Protocol: as §1
Retinas were fixed with 4% paraformaldehyde in PBS for 30 minutes at room temperature, followed by overnight incubation at 4° C. in PBS containing 30% sucrose. […]
To examine MG proliferation induced by neurotoxic injury in the adult mammalian retina, 200 nmol was injected NMDA into the vitreous chamber of the mouse retina at 4 weeks of age. […] NMDA-induced cell proliferation was quantified by scoring the number of EdU^+ cells/mm^2 in retinal flatmount preparations. […]
To examine the ability of inhibition of Wnt signaling to suppress NMDA-induced MG proliferation, NMDA was co-injected with XAV939, a selective Wnt signaling antagonist (Huang et al., Nature, 2009, 461:614-620), and the number of EdU^+ cells per mm^2 in retinal flatmount preparations was quantified 60 hours post-injection, when the maximum number of EdU^+ cells were detected (FIG. 2A). […]

For `CN[C@H](CC(=O)O)C(=O)O` [NMDA], the “RNA levels for Wnt genes (Wnt2b, Wnt8a, Wnt8b, Wnt9a, Wnt10a), upregulation” value (Wnt signaling pathway; 6-24 hours post-NMDA injection, relative to PBS injected retina) was “at least 3 fold”, the “RNA levels for WIF-1” value (Wnt signaling pathway; 12 hours post-NMDA injection) was 1.6±0.2 % of the control and the “RNA levels for Dkk1” value (Wnt signaling pathway; 24 hours post-NMDA injection) was 13.2±0.6 % of the control. For the same compound, the “upregulation of CyclinD1 (Ccnd1)” value (Wnt signaling pathway; 24 hours post-NMDA injection) was 3.4 fold, the “RNA levels of Lef1 and Axin2” value (Wnt signaling pathway; post-NMDA injection) was “significant upregulation” and the “number of EdU+ cells/mm^2” value (Müller glial cells (MGs); 36 hours post-NMDA injection) was 4.7±0.8 cells/mm^2. For the same compound, the “number of EdU+ cells/mm^2” value (Müller glial cells (MGs); 48 hours post-NMDA injection) was 223.3±8.3 cells/mm^2, the “number of EdU+ cells/mm^2” value (Müller glial cells (MGs); 60 hours post-NMDA injection) was 264.5±8.4 cells/mm^2 and the “number of EdU+ cells/mm^2” value (Müller glial cells (MGs); 72 hours post-NMDA injection) was 5.8±1.1 cells/mm^2. For the same compound, the “HuC/D+ cells remaining” value [1] was about 45%.

`Oc1nc(-c2ccc(C(F)(F)F)cc2)nc2c1CSCC2` [XAV939] was tested, and the “number of EdU+ cells per mm^2 versus NMDA injection alone” value (Müller glial cells (MGs); XAV939 co-injected with NMDA, 60 hours post-injection) was “significantly reduced”.
